Measurements as given in publication PMC11053983, “Beyond One-Size-Fits-All: Tailoring Teicoplanin Regimens for Normal Renal Function Patients Using Population Pharmacokinetics and Monte Carlo Simulation” (Pharmaceutics, 2024).

Key:
[1] = Single 200 mg IV infusion (30 min) PK in 12 healthy adults, noncompartmental analysis; format: in vivo, human; details: n = 12; for Cmax: plasma, HPLC-MS/MS
Method: (§1) A 200 mg dose of teicoplanin in 100 mL of normal saline was administered intravenously to subjects over 30 min. Venous blood samples (6 mL each) were collected into heparinized tubes at 33, 36, 45, and 90 min, and 4, 8, 48–120, and 168–240 h after starting the infusion. Eight sampling points were used per subject to analyze PK parameters via noncompartmental and population PK methods.
(§2) Plasma levels of teicoplanin were quantified using tandem mass spectrometry coupled with HPLC (HPLC-MS/MS). The analytical system utilized included an LC-40 HPLC unit from Shimadzu Co. (Kyoto, Japan) paired with a Gemini C18 analytical column from Phenomenex (Torrance, CA, USA). A SCIEX 4500 QTRAP mass spectrometer (Sciex, Redwood City, CA, USA) facilitated the MS-based detection. Calibration standards were prepared by combining 100 μL of a reference solution with 10 μL of a vancomycin internal standard (concentration of 100 μg/mL) in microcentrifuge tubes. To this mixture, 400 μL of acetonitrile was added to precipitate proteins, followed by vortex mixing for 60 s. Following centrifugation at 12,000 rpm for 2 min at 4 °C, the clear supernatant was diluted 10-fold with deionized water. A 10 μL sample of this solution was then introduced into the HPLC-MS/MS for analysis. In a parallel procedure for plasma samples, after the addition of the vancomycin internal standard and acetonitrile-induced protein precipitation, the sample was processed like that of the calibration standard preparation before HPLC-MS/MS analysis. The teicoplanin concentration in the plasma was determined by comparing the peak area ratio of teicoplanin to the internal standard and employed a batch-specific calibration curve equation, adjusted for 1/x^2 weighting.
A noncompartmental analysis (NCA) was completed to evaluate the plasma concentration–time profiles of teicoplanin using the R programming language and the NonCompart package. The following PK parameters were assessed: maximum observed plasma concentration (Cmax), time of last measurable concentration (Tlast), concentration corresponding to Tlast (Clast), area under the plasma concentration–time curve (AUC) from the start of dosing to the last quantifiable concentration (AUClast), AUC from the start of dosing to infinity (AUCinf), area under the first moment curve (AUMC) from 0 h to the Tlast (AUMClast), AUMC extrapolated to infinity, based on the last observed concentration (AUMCinf), mean residence time from 0 h to infinite (MRTinf), total body clearance as determined through NCA (CLNCA), volume of distribution (Vd) determined via NCA (VzNCA), steady-state Vd determined via NCA (VssNCA), and terminal elimination half-life (t1/2λz). Cmax, Tlast, and Clast were determined directly from the observed data. AUClast and AUMClast were calculated employing the linear-up and log-down trapezoidal method. AUCinf was estimated by adding Clast/λz to AUClast, where λz is the terminal elimination rate constant, which was determined by log-linear regression of the terminal phase plasma concentrations. AUMCinf was calculated using the following formula: AUMClast + (Tlast × Clast)/λz + Clast/λz^2, MRTinf as AUMCinf/AUCinf—infusion time/2, CLNCA as dose/AUCinf, VzNCA as CLNCA/λz, VssNCA as MRTinf × CLNCA, and t1/2λz as ln(2)/λz.

[2] = Population PK analysis (NONMEM, three-compartment model), 12 healthy adults, 200 mg IV; format: in vivo; details: for CL, total clearance / AUC (dose/CL) / VC, central volume of distribution / Vss, steady-state volume of distribution: individual parameters; for CL, total clearance: n = 12; for 1st t1/2 / 2nd t1/2 / 3rd t1/2: three-compartment model
Method: as §1, §2
The PK analysis of teicoplanin was completed using a nonlinear mixed-effects modeling technique with NONMEM software (version 7.5, ICON Clinical Research LLC, North Wales, PA, USA). Parameter estimation for both the observed and the unaccounted-for random effects was achieved by applying the First-Order Conditional Estimation with Interaction approach. This method facilitates the consideration of interactions between the unexplained interindividual variability (IIV) of PK parameters and the residual unexplained variability in the observed concentrations. To model the PK profiles of teicoplanin, we used one-compartment (ADVAN1 TRANS2), two-compartment (ADVAN3 TRANS4), and three-compartment (ADVAN11 TRANS4) models which were based on first-order kinetics, with the exception of zero-order infusion processes.
Model selection and evaluation were based on several criteria: NONMEM’s objective function values (OFVs), parameter estimate precision (reflected by relative standard errors), IIV shrinkage, diagnostic fit plots, visual predictive checks, and bootstrap analysis. For nested model comparisons, a decrease in OFV (ΔOFV) exceeding 3.84 (for a χ^2 distribution with one degree of freedom, df) or 5.99 (for a χ^2 distribution with two df) indicated meaningful improvements at a significance level of p < 0.05. The diagnostic plots for model assessment include conditional weighted residuals (CWRES) against time and population predictions (PRED), as well as actual observations compared with both PRED and individual predictions. Visual predictive checks (VPC) were conducted by matching the observed concentrations to the 80% prediction intervals from 1000 simulations based on the final PK model. The variability in the final predictions was determined by calculating the median and 95% confidence intervals for the PK parameters from 2000 bootstrap samples.
Significant covariates affecting PK parameters were determined using stepwise selection, with inclusion at p < 0.01 (ΔOFV < −6.635) and exclusion at p < 0.001 (ΔOFV > 10.83) for one df. Covariates had to show statistical and clinical relevance. […]

[3] = human, in vivo; cited from earlier work
From the text: Teicoplanin, along with the glycopeptide antibiotic vancomycin, has an important role in the treatment of Gram-positive bacterial infections, including those caused by methicillin-resistant Staphylococcus aureus (MRSA). […] Based on the European Medicines Agency’s summary of the product characteristics (SmPC) for teicoplanin, adults and the elderly with normal renal function have recommended specific do ...

[4] = cited from earlier work
From the text: In the present study, the PK profile of teicoplanin in healthy adults was characterized using a three-compartment model. Typically, in studies with sparse sampling designs, the PK profile of teicoplanin is often delineated using one- [15, 16] or two-compartment models; however, previous studies using dense sampling approaches have also applied a three-compartment model. Such models are characterized by three distinct slopes when plotted on a graph with the y-axis representing a logarithmic scale, corresponding to the composition of three exponential equations ...

[5] = 12 mg/kg every 12 h x4, then 12 mg/kg daily; median CLCR 113 mL/min; cited from earlier work
[6] = human, in vivo; cited from earlier work; remark: listed apart in the source
Method: In the second simulation, the PTA was determined for different LD and MD regimens to satisfy both criteria: a Ctrough greater than 20 mg/L and an AUC/MIC ratio of at least 800. Adopting a similar approach to the first simulation, we used two distinct LD and MD combinations. The proportion of patients achieving both therapeutic targets was continuously assessed from days 3 to 7 following the initiation of treatment.

[7] = in vivo; cited from earlier work
From the text: This study had several limitations. First, a small sample size of 12 subjects was insufficient to detect a variety of meaningful covariates, although eGFR and body weight were identified as significant factors. Thus, future studies with larger patient cohorts will be needed to develop more robust models. […] This decision, aimed at enhancing model stability and interpretability, involved employing the FOCE-I method and facing challenges with other estimation methods due to our ...

teicoplanin
t1/2λz, terminal elimination half-life ([1]; last 3 or 4 points, mean (CV%)): 54.6 (13.2%) h
AUCinf ([1]; mean (CV%)): 307 (15.4%) mg/L·h
AUClast ([1]; mean (CV%)): 273 (16.6%) mg/L·h
AUMCinf ([1]; mean (CV%)): 22,700 (14.8%) mg/L·h^2
AUMClast ([1]; mean (CV%)): 13,800 (16.0%) mg/L·h^2
CLNCA ([1]; mean (CV%)): 0.0105 (15.2%) L/h/kg
Clast ([1]; mean (CV%)): 0.431 (24.9%) mg/L
MRTinf ([1]; mean (CV%)): 74.0 (12.8%) h
VssNCA ([1]; mean (CV%)): 0.776 (19.6%) L/kg
AUCinf ([1]; median (IQR)): 305 (279–332) mg/L·h
AUClast ([1]; median (IQR)): 270 (247–302) mg/L·h
AUMCinf ([1]; median (IQR)): 22,300 (20,200–23,200) mg/L·h^2
AUMClast ([1]; median (IQR)): 13,800 (12,300–15,000) mg/L·h^2
CLNCA ([1]; median (IQR)): 0.0103 (0.00896–0.0117) L/h/kg
Clast ([1]; median (IQR)): 0.422 (0.348–0.470) mg/L
MRTinf ([1]; median (IQR)): 76.7 (68.0–80.7) h
Tlast ([1]; median (IQR)): 192 (169–194) h
VssNCA ([1]; median (IQR)): 0.734 (0.661–0.859) L/kg
t1/2λz, terminal elimination half-life ([1]; median (IQR)): 55.0 (51.9–58.6) h
Cmax ([1]; mean (CV%)): 32.1 (12.9%) mg/L
Cmax ([1]; median (IQR)): 30.9 (29.5–35.6) mg/L
Q2, bootstrap median (95% CI) ([2]; 2000 bootstrap samples): 4.45 (3.63–5.86) L/h
Q3, bootstrap median (95% CI) ([2]; 2000 bootstrap samples): 1.75 (1.44–2.13) L/h
V1, bootstrap median (95% CI) ([2]; 2000 bootstrap samples): 3.97 (3.15–4.62) L
V2, bootstrap median (95% CI) ([2]; 2000 bootstrap samples): 8.33 (7.07–9.85) L
θ1 (CL), bootstrap median (95% CI) ([2]; 2000 bootstrap samples): 0.693 (0.653–0.74) L/h
θ2, bootstrap median (95% CI) ([2]; 2000 bootstrap samples): 0.789 (0.422–1.16)
θ7 (V3), bootstrap median (95% CI) ([2]; 2000 bootstrap samples): 69.7 (55.8–82.6) L
θ8, bootstrap median (95% CI) ([2]; 2000 bootstrap samples): 1.73 (0.67–2.44)
CL typical value θ1, CL = θ1 × (CE/105.27)^θ2, estimate ([2]; final model estimate): 0.693 L/h
Q2 = θ4, intercompartmental clearance V1-V2, estimate ([2]; final model estimate): 4.45 L/h
Q3 = θ6, intercompartmental clearance V1-V3, estimate ([2]; final model estimate): 1.76 L/h
V1 = θ3, central volume of distribution, estimate ([2]; final model estimate): 3.96 L
V2 = θ5, first peripheral volume, estimate ([2]; final model estimate): 8.24 L
θ7, V3 = θ7 × (WT/67.85)^θ8, second peripheral volume, estimate ([2]; final model estimate): 69.8 L
θ8, exponent of weight on V3, estimate ([2]; final model estimate): 1.73
VSS typical value (V1 + V2 + V3) ([2]; healthy subjects): 82.0 L
CL, total clearance ([2]; mean (CV%)): 0.0107 (14.0%) L/h/kg
CL, total clearance ([2]; median (IQR)): 0.0104 (0.00961–0.0122) L/h/kg
AUC (dose/CL) ([2]; mean (CV%)): 299 (16.0%) mg/L·h
VC, central volume of distribution ([2]; mean (CV%)): 0.0644 (28.9%) L/kg
Vss, steady-state volume of distribution ([2]; mean (CV%)): 1.21 (23.0%) L/kg
AUC (dose/CL) ([2]; median (IQR)): 300 (263–316) mg/L·h
VC, central volume of distribution ([2]; median (IQR)): 0.0649 (0.0526–0.0733) L/kg
Vss, steady-state volume of distribution ([2]; median (IQR)): 1.24 (1.06–1.34) L/kg
1st t1/2 ([2]; mean (CV%)): 0.345 (36.3%) h
2nd t1/2 ([2]; mean (CV%)): 4.12 (22.2%) h
3rd t1/2 ([2]; mean (CV%)): 103 (29.9%) h
1st t1/2 ([2]; median (IQR)): 0.317 (0.289–0.417) h
2nd t1/2 ([2]; median (IQR)): 4.23 (3.78–4.83) h
3rd t1/2 ([2]; median (IQR)): 97.9 (83.1–116) h
elimination half-life [3]: 83 to 182 h
V1 [4]: 4.32 L
V2 [4]: 8.35 L
V3 [4]: 68.6 L
VSS [4]: 81.3 L
CL ([4]; mean 64 years, 69.1 kg, CLCR 72 mL/min): 0.490 L/h
steady-state Ctrough, median (range) [5]: 15.9 (8.8–29.9) mg/L
patients achieving AUC ≥800 mg/L·h [6]: 100%
linear PK range [7]: 2 to 25 mg/kg
